# Results published in patent publication US20260193647A1, “MIRNA-BASED CANCER THERAPY WITH A TUMOR-NAVIGATING PEPTIDE” (The Board of Trustees of the Universities of Illinois, priority 2022, published 2026).
# Columns and labels:
# [1] = system: SJ-GBM2 cells; assay: Annexin V/PI flow cytometric apoptosis assay, SJ-GBM2; type: cell-based, human; details: 10 nM, 24 h
# Description: (§1) Cells were seeded into 10-cm dishes and cultured overnight. Then, the cells were treated with 10 nM antisense miR-20a alone, p28 alone or AmiR20-p28 for 24 hr. Cells were washed with 1×PBS, detached with TrypleE (Invitrogen). and collected by centrifugation. Cells were washed and resuspended with 1× Annexin binding buffer (Life Technologies, catalog #V13242), and the cell density was maintained at 10^6 cells/ml. Subsequently, 5 μl of Annexin-V was added to 100 μl of the cell suspension, and the mixture was incubated for 15 min at room temperature. The cells were washed and incubated with 5 μl of PI for an additional 15 min on ice, washed and resuspended in 200 μl of buffer. Cells without treatment were used as controls. After washing, cells were subjected to flow cytometry (Gallios flow cytometer) and analyzed with Kaluza software to give the proportions of dead (top left quadrant), late apoptotic (top right quadrant), early apoptotic (bottom right quadrant) and viable (bottom left quadrant) cells.
# [2] = system: aGBM (LN-229) cells; assay: Annexin V/PI flow cytometric apoptosis assay, aGBM (LN-229); type: cell-based, human; details: 10 nM, 24 h
# Description: as §1
# [3] = system: SJ-GBM2 spheroids; assay: SJ-GBM2 tumor spheroids: uptake and structure; type: cell-based, human
# Description: SJ-GBM2 cells, CHLA-200 cells and astrocytes (2×10^4 cells/well) were cultured on glass slides placed in 24-well plates. After overnight culture, the cells were washed with PBS and incubated with 20 μM Alexa Fluor 568-labeled p28 peptide in medium (5% FBS and without phenol red) for 2 hr at 37° C. Cells were fixed with 2% formalin for 10 min. After washing, slides were prepared and mounted with Vectashield with DAPI (Vector Laboratories, Catalog #94010). Slides were examined by an LSM 710 confocal laser scanning microscope (Zeiss). Images were processed using ZEN software (ZEISS ZEN Lite). As for a GSC marker, the slides were first incubated with Alexa Fluor 568-labeled AmiR20-p28 for 2 hr at 37° C. Cells were fixed with 2% formalin for 10 min. After washing, slides were incubated with blocking buffer for 1 hr at room temperature, followed by consecutive staining with anti-CD133 antibody (1:500, R&D Systems FAB11331G). Slides were washed and mounted with Vectashield containing DAPI. Slides were examined by the LSM 710 confocal laser scanning microscope.
# SJ-GBM2 spheroids were formed by self-aggregation of cells in the bottoms of non-adherent round bottom 96-well plates (Thermo Scientific, #174925 96U). Suspensions of 10,000 cells in 100 μl volumes of media were pipetted into individual wells and allowed to form cell-cell connections over the course of 3 days.
# [4] = system: miR-20a; assay: miR-20a levels in resected tumor tissues of treated mice; type: in vivo; details: 1 mg/kg 3 times a week for one week; vs PBS-treated mice
# Text: Micro RNA enriched fraction was extracted using the miRNeasy Mini Kit (Qiagen, Catalog #217004) following the manufacturer's instructions. Stem loop real-time qPCR was used to analyze miRNA expression. We designed miR-20a stem loop RT primers and amplification primers according to a previously described method 79. cDNA was synthesized from extracted RNA using unique stem loop RT primers. The sequence of the stem loop primer for miR-20a was 5′-[…]-3′ (SEQ ID NO:7). Reverse transcriptase reactions contained the following reagents: 10 ng of RNA sample, 60 nM stem-loop RT primer, 1×RT buffer, 0.25 mM dNTP, and 4 U/μl reverse transcriptase. Reactions were performed by incubation at 16° C. for 30 min, 42° C. for 30 min and 85° C. for 5 min. Real-time PCR (7300 Real time PCR Systems, Applied Biosystems, CA) was performed using the specific forward primer for miR-20a (5′-[…]-3′ (SEQ ID NO:8)) and a universal reverse primer (5′-GTGCA GGGTC CGAGGT-3′ (SEQ ID NO:9)). […]
# A quantitative analysis using human-specific Alu sequence (hAlu) was performed on samples collected from the isolated brain tissues. […] The amount of hAlu and mGAPDH DNA in the tissue was calculated by comparison with a standard curve, and the calculated amount of hAlu DNA was normalized against the relative quantity of mGAPDH. […]
# [5] = set-up: species or system mice; details: mouse, in vivo
# Description: Collected samples were fixed with buffered 3.7% formalin (Anatech) for 24 hr. Formalin was replaced with 70% ethanol following fixation. Samples were paraffin-embedded, and blocks were cut into 4 μm-thick sections and mounted onto slides which were processed for H&E staining. H&E-stained slides were analyzed by a pathologist blinded to the experimental groups.
# Alanine transaminase (ALT) activity was measured using ALT assay kits (Sigma, #MAK052) and serum aspartate transaminase (AST) activities was measured using AST assay kits (Sigma, #MAK055) following the manufacturer's instructions. Briefly, serum samples at different dilutions, were reacted with ALT or AST reaction mixture and plated on 96-well plate, followed by reading at A450. The final calculations were done by comparing the sample readings with that of standard curve (pyruvate standards for ALT and glutamate standards for AST).
# [6] = system: SJ-GBM2 cells; details: read-out: IC50 (cell viability); 24 hr
# Description: Cell viability was evaluated by a CCK-8 assay (Dojindo, Japan). Cells were seeded at a density of 4,000 cells per well in 100 μl of growth medium in 96-well plates and grown overnight. Then, the cells were exposed to antisense miR-20a alone, p28 alone or negative control or AmiR20-p28 over a range of concentrations and incubated for 24 hr. According to the manufacturer's instructions, 10 μl of CCK-8 solution was added to each well, followed by incubation for 1 hr at 37° C. The absorbance at 450 nm was determined by a multiplate reader.
# Cell viability (%)=Abs(sample)−Abs(blank)/Abs(no treatment)−Abs(blank)×100
substance,measurement,setting,value
AmiR20-p28: BBB-permeable tumor-navigating CPP p28 (Cys-p28) covalently linked to 2′ O-methyl antisense miR-20a (5′-maleimide),increase in apoptotic cells by,[1],16%
same,apoptotic cells after treatment,[2],6.7%
same,structure of the SJ-GBM2 spheroids,"[3]; 10 nM, 24 and 48 h",started to disintegrate at 24 h
same,uptake in tumor spheroids,"[3]; 20 μM Alexa Fluor-labeled, 2 hr, 37° C.",penetrated the tumor spheroids
same,miR-20a levels in tumor tissues,[4],significant decrease in miR-20a levels
same,"histology of heart, lung, liver, spleen, and kidney",[5],no AmiR20-p28-related differences in histology
same,"adverse effects (hepatotoxicity assay, hemolysis assay, histological examination)","[5]; iv, 1 mg/kg",without apparent adverse effects
same,IC50,[6],8 nM
